Laboratory results: PMC7366380, “Discovery of a Potent and Selective Covalent Inhibitor and Activity-Based Probe for the Deubiquitylating Enzyme UCHL1, with Antifibrotic Activity” (Journal of the American Chemical Society, 2020)
“And” between values parts separate entries of the source, which are not always exact repeats. Equal entries are not always repeated.

Assays:
Experiment in all cases: In-cell proteome-wide competitive ABPP, HEK293: other DUBs and proteins
[1] = biological target: DUBs and other proteins in HEK293 cells (Homo sapiens, UniProt Q93009); conditions: replicates A-C; for Log2 reporter intensity values: USP7: competition with ABP 2, DMSO substract (FC); for Log2 reporter intensity values: USP7, DMSO subtracted
Chain of DUBs and other proteins in HEK293 cells (Homo sapiens, UniProt Q93009) (Q93009 whole entry): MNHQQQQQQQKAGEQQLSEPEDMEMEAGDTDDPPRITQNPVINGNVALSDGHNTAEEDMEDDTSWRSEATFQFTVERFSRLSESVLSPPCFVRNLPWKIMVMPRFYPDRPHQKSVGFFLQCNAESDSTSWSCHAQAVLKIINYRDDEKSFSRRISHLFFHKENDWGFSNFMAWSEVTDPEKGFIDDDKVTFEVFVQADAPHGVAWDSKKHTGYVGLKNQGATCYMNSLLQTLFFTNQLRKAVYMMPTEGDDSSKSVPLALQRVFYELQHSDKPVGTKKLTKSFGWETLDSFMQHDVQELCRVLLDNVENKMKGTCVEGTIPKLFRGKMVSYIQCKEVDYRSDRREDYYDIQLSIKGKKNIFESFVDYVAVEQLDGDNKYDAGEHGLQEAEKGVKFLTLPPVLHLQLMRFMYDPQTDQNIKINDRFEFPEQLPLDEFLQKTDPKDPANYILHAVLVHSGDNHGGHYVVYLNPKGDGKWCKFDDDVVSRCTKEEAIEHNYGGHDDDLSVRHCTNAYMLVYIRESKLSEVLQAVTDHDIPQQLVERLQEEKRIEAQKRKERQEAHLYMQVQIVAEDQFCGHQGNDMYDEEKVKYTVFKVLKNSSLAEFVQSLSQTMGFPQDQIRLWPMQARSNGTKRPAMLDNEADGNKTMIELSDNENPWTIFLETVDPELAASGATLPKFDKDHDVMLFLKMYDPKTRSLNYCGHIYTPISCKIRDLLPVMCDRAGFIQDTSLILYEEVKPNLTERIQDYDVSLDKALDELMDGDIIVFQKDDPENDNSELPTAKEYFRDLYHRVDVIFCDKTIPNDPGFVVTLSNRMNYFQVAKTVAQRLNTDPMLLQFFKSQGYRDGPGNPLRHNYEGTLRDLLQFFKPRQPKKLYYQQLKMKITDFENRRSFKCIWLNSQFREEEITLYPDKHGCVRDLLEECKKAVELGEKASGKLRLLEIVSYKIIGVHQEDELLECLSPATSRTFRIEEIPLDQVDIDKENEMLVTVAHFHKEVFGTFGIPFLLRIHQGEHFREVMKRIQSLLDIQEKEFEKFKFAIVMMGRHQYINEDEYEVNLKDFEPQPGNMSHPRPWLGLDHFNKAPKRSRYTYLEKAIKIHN

[2] = biological target: DUBs and other proteins in HEK293 cells (Homo sapiens, UniProt O00303); conditions: for Log2 reporter intensity values, EIF3F: TMT replicates; for Log2 reporter intensity values / Log2 reporter intensity values: EIF3F: replicates A-C; for Log2 reporter intensity values: EIF3F: competition with ABP 2, DMSO substract (FC)
Chain of DUBs and other proteins in HEK293 cells (Homo sapiens, UniProt O00303) (O00303 whole entry): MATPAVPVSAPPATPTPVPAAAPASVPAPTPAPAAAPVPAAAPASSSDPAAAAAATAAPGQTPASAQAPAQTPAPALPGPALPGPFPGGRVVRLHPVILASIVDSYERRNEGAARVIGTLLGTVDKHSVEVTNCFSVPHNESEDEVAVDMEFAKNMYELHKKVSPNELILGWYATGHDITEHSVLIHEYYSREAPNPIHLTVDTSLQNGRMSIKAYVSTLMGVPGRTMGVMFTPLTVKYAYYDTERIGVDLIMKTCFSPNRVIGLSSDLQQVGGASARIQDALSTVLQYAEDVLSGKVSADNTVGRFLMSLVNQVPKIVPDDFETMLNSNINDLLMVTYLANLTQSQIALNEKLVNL

[3] = biological target: DUBs and other proteins in HEK293 cells (Homo sapiens, UniProt Q14694); conditions: replicates A-C; for Log2 reporter intensity values: USP10: competition with ABP 2, DMSO substract (FC); for Log2 reporter intensity values: USP10, DMSO subtracted
Chain of DUBs and other proteins in HEK293 cells (Homo sapiens, UniProt Q14694) (Q14694 whole entry): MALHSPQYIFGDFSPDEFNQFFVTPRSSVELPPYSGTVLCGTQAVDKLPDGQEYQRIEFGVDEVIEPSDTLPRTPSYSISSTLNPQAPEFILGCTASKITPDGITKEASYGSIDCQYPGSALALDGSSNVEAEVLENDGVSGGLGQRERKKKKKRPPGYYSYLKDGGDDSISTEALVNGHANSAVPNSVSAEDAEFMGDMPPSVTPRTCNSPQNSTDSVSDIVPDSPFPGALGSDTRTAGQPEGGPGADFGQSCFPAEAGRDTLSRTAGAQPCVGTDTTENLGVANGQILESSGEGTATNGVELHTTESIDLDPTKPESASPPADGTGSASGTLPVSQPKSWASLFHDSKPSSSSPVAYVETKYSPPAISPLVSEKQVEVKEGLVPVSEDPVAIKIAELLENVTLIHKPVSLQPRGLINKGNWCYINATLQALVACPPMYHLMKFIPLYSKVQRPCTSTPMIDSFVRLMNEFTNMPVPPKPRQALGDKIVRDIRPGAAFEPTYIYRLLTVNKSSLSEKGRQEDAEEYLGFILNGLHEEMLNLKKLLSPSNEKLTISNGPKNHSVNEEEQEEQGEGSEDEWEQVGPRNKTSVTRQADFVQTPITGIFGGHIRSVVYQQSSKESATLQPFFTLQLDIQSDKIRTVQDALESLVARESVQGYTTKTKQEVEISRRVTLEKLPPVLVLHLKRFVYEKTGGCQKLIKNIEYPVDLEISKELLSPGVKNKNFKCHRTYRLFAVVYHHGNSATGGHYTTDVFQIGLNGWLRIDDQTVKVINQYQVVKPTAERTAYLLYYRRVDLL

[4] = biological target: DUBs and other proteins in HEK293 cells (Homo sapiens, UniProt Q96FW1); conditions: replicates A-C; for Log2 reporter intensity values: OTUB1: competition with ABP 2, DMSO substract (FC); for Log2 reporter intensity values: OTUB1, DMSO subtracted
Chain of DUBs and other proteins in HEK293 cells (Homo sapiens, UniProt Q96FW1) (Q96FW1 whole entry): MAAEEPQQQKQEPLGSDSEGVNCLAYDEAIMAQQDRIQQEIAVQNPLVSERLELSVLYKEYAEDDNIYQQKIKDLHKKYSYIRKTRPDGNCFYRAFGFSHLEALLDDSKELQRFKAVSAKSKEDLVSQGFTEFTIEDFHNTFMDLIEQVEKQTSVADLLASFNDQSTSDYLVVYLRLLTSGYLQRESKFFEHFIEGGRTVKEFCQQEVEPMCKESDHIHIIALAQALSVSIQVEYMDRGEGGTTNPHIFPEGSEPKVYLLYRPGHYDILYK

[5] = biological target: T1, DUBs and other proteins in HEK293 cells (Homo sapiens, UniProt Q86UV5); conditions: for Log2 reporter intensity values: USP48: competition with ABP 2, DMSO substract (FC), replicates A-B; for Log2 reporter intensity values: USP48, DMSO subtracted
T1 sequence (Q86UV5 1-1035): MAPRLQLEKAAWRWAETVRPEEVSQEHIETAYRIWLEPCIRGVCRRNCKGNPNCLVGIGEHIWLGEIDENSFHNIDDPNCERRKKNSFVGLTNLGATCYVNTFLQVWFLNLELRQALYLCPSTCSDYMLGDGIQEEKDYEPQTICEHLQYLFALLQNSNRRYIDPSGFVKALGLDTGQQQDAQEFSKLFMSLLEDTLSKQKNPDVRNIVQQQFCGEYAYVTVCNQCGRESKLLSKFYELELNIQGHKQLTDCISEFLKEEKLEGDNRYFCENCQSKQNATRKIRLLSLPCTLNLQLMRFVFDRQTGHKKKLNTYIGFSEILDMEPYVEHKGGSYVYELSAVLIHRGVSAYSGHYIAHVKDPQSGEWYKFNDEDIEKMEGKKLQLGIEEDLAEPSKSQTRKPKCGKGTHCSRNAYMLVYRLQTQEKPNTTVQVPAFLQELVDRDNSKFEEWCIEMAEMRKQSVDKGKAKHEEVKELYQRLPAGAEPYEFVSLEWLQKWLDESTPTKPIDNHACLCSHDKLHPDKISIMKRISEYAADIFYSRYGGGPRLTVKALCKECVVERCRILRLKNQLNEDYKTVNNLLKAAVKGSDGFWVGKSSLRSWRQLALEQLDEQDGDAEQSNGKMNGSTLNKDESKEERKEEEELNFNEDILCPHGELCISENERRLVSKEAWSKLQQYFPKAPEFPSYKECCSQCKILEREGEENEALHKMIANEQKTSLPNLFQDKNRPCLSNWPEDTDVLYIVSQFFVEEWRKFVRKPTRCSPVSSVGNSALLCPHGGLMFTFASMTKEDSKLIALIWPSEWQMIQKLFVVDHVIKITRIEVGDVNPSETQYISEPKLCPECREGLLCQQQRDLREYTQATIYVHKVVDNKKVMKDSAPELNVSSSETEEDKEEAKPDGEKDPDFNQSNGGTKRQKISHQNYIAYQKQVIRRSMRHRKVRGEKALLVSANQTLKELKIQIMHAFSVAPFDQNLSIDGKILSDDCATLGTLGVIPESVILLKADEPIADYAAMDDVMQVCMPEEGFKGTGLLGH

[6] = biological target: DUBs and other proteins in HEK293 cells (Homo sapiens, UniProt O00487); conditions: replicates A-C; for Log2 reporter intensity values: PSMD14: competition with ABP 2, DMSO substract (FC); for Log2 reporter intensity values: PSMD14, DMSO subtracted
Chain of DUBs and other proteins in HEK293 cells (Homo sapiens, UniProt O00487) (O00487 whole entry): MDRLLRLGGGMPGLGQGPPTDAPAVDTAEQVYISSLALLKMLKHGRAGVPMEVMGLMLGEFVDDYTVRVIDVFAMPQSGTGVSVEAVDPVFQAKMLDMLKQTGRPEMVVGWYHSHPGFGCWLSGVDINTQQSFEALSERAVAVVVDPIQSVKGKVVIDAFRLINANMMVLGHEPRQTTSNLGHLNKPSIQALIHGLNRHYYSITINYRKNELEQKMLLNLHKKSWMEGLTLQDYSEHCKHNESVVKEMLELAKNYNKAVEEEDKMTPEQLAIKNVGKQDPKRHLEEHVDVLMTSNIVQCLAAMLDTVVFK

[7] = biological target: DUBs and other proteins in HEK293 cells (Homo sapiens, UniProt Q6P2Q9); conditions: replicates A-C; for Log2 reporter intensity values: PRPF8: competition with ABP 2, DMSO substract (FC); for Log2 reporter intensity values: PRPF8, DMSO subtracted

For CC(=O)O/N=C1\C(=O)N(Cc2cc(Cl)ccc2Cl)c2ccc(Cl)cc21 [LDN], which “Log2 reporter intensity values: USP7” value ([1]; LDN at 5 μM) is on record?
Its value is 1.02 and 1.001 and 1.029.

And the “Log2 reporter intensity values: USP7” value ([1]; LDN at 25 μM)?
The value was 0.9945 and 1.07 and 1.065.

What about the “Log2 reporter intensity values” ([1]; LDN at 5 μM) of the same molecule?
The value was 0.02794 and 0.001316 and 0.0413.

And the “Log2 reporter intensity values” ([1]; LDN at 25 μM)?
Its value is -0.007921 and 0.09748 and 0.09021.

What about the “Log2 reporter intensity values” ([1]; LDN_5 μM) of the same molecule?
The value was 0.01927 and 0.0006308 and 0.02876.

And the “Log2 reporter intensity values” ([1]; LDN_25 μM)?
Its value is -0.005757 and 0.06962 and 0.06425.

And the “Log2 reporter intensity values, EIF3F” value ([2]; 5 μM LDN-57444 (60 min) + 20 nM ABP 2 (10 min), All values)?
The value was 0.1312 and 0.08738 and -0.0291.

And the “Log2 reporter intensity values, EIF3F” value ([2]; 5 μM LDN-57444 (60 min) + 20 nM ABP 2 (10 min), DMSO subtracted)?
Its value is 0.1407 and 0.09693 and -0.01955.

And the “Log2 reporter intensity values, EIF3F” value ([2]; 25 μM LDN-57444 (60 min) + 20 nM ABP 2 (10 min), All values)?
The value was 0.03265 and -0.09761 and -0.112.

What about the “Log2 reporter intensity values, EIF3F” value ([2]; 25 μM LDN-57444 (60 min) + 20 nM ABP 2 (10 min), DMSO subtracted) of the same molecule?
Its value is 0.0422 and -0.08806 and -0.1024.

What about the “Log2 t-test Difference” value ([2]; EIF3F, LDN - 5 μM) of the same molecule?
Its value is -0.01801.

What about the “Log2 reporter intensity values” ([2]; EIF3F, LDN at 5 μM, DMSO subtracted) of the same molecule?
Its value is 0.1407 and 0.09693 and -0.01955.

What about the “Log2 reporter intensity values” ([2]; EIF3F, LDN at 25 μM, DMSO subtracted) of the same molecule?
Its value is 0.0422 and -0.08806 and -0.1024.

What about the “Log2 reporter intensity values” ([2]; EIF3F, LDN_5 μM, DMSO subtracted) of the same molecule?
Its value is 0.102 and 0.06908 and -0.01388.

And the “Log2 reporter intensity values” ([2]; EIF3F, LDN_25 μM, DMSO subtracted)?
Its value is 0.02927 and -0.05963 and -0.06897.

And the “Log2 reporter intensity values: EIF3F” value ([2]; LDN at 5 μM)?
Its value is 1.102 and 1.069 and 0.9865.

What about the “Log2 reporter intensity values: EIF3F” value ([2]; LDN at 25 μM) of the same molecule?
Its value is 1.03 and 0.9408 and 0.9315.

What about the “Log2 reporter intensity values: USP10” value ([3]; LDN at 5 μM) of the same molecule?
The value was 0.9581 and 0.8382 and 0.9082.

And the “Log2 reporter intensity values: USP10” value ([3]; LDN at 25 μM)?
Its value is 0.9726 and 0.903 and 0.8841.

And the “Log2 reporter intensity values” ([3]; LDN at 5 μM)?
Its value is -0.06168 and -0.2546 and -0.1389.

What about the “Log2 reporter intensity values” ([3]; LDN at 25 μM) of the same molecule?
Its value is -0.04009 and -0.1472 and -0.1778.

What about the “Log2 reporter intensity values” ([3]; LDN_5 μM) of the same molecule?
Its value is -0.04282 and -0.1627 and -0.09278.

What about the “Log2 reporter intensity values” ([3]; LDN_25 μM) of the same molecule?
Its value is -0.02837 and -0.09796 and -0.1169.

And the “Log2 reporter intensity values: OTUB1” value ([4]; LDN at 5 μM)?
The value was 1.034 and 1.042 and 1.019.

And the “Log2 reporter intensity values: OTUB1” value ([4]; LDN at 25 μM)?
The value was 1.066 and 0.9796 and 1.019.

And the “Log2 reporter intensity values” ([4]; LDN at 5 μM)?
Its value is 0.04805 and 0.05934 and 0.02777.

And the “Log2 reporter intensity values” ([4]; LDN at 25 μM)?
The value was 0.09269 and -0.02973 and 0.02677.

What about the “Log2 reporter intensity values” ([4]; LDN_5 μM) of the same molecule?
Its value is 0.03375 and 0.04187 and 0.01932.

What about the “Log2 reporter intensity values” ([4]; LDN_25 μM) of the same molecule?
The value was 0.06623 and -0.02052 and 0.01861.

And the “Log2 reporter intensity values: USP48” value ([5]; LDN at 5 μM)?
Its value is 1.048 and 1.119.

What about the “Log2 reporter intensity values: USP48” value ([5]; LDN at 25 μM) of the same molecule?
The value was 1.118 and 1.08.

What about the “Log2 reporter intensity values” ([5]; LDN at 5 μM, replicates A-C) of the same molecule?
Its value is 0.0673 and 0.1618.

And the “Log2 reporter intensity values” ([5]; LDN at 25 μM, replicates A-C)?
Its value is 0.1604 and 0.1117.

And the “Log2 reporter intensity values” ([5]; LDN_5 μM, replicates A-B (C NaN))?
Its value is 0.04647 and 0.1174.

What about the “Log2 reporter intensity values” ([5]; LDN_25 μM, replicates A-B (C NaN)) of the same molecule?
Its value is 0.1163 and 0.0792.

And the “Log2 reporter intensity values: PSMD14” value ([6]; LDN at 5 μM)?
Its value is 1.1 and 1.114 and 0.9966.

What about the “Log2 reporter intensity values: PSMD14” value ([6]; LDN at 25 μM) of the same molecule?
The value was 0.9804 and 1.072 and 1.068.

And the “Log2 reporter intensity values” ([6]; LDN at 5 μM)?
The value was 0.1369 and 0.1555 and -0.004904.

And the “Log2 reporter intensity values” ([6]; LDN at 25 μM)?
The value was -0.02853 and 0.1005 and 0.09452.

What about the “Log2 reporter intensity values” ([6]; LDN_5 μM) of the same molecule?
Its value is 0.09685 and 0.1112 and -0.006053.

And the “Log2 reporter intensity values” ([6]; LDN_25 μM)?
Its value is -0.02224 and 0.06945 and 0.06505.

And the “Log2 reporter intensity values: PRPF8” value ([7]; LDN at 5 μM)?
Its value is 0.8673 and 0.9446 and 0.9404.

What about the “Log2 reporter intensity values: PRPF8” value ([7]; LDN at 25 μM) of the same molecule?
The value was 0.9445 and 0.9891 and 0.9788.

And the “Log2 reporter intensity values” ([7]; LDN at 5 μM)?
The value was -0.2054 and -0.08218 and -0.0886.

And the “Log2 reporter intensity values” ([7]; LDN at 25 μM)?
Its value is -0.08236 and -0.01582 and -0.0309.

What about the “Log2 reporter intensity values” ([7]; LDN_5 μM) of the same molecule?
Its value is -0.1329 and -0.05561 and -0.05981.

What about the “Log2 reporter intensity values” ([7]; LDN_25 μM) of the same molecule?
Its value is -0.05573 and -0.01115 and -0.02143.
